Reference: publication PMC9574929, “Development of Hydrogen Sulfide-Releasing Carbonic Anhydrases IX- and XII-Selective Inhibitors with Enhanced Antihyperalgesic Action in a Rat Model of Arthritis” (Journal of Medicinal Chemistry, 2022)
“And” between values parts separate entries of the source, which are not always exact repeats. Equal entries are not always repeated. Values belong to the compound of their own block, whether it stands above or below them.

What was measured:
[1] = target: T1, hCA IX (Homo sapiens, UniProt Q16790); set-up: made in house; method as in Bonardi et al. [29,30]; conditions: stopped-flow CO2 hydrase assay; Table S1 footnote b; ref Bonardi et al. [29,30]; cited from earlier work
[2] = target: hCA II (Homo sapiens, UniProt P00918); experiment: Stopped-flow CO2 hydrase assay, hCA II; conditions: for SI CA I/II: selectivity index, ratio of KIs
Method: (§3) The uncatalyzed rates were determined in the same manner and subtracted from the total observed rates. Stock solutions of inhibitor (0.1 mM) were prepared in distilled-deionized water and dilutions up to 0.01 nM were done thereafter with the assay buffer. […] The inhibition constants were obtained by nonlinear least-squares methods using PRISM 3 and the Cheng–Prusoff equation, as reported earlier,[39] and represent the mean from at least three different determinations.

[3] = target: hCA XII (Homo sapiens, UniProt O43570); experiment: Stopped-flow CO2 hydrase assay, hCA XII; conditions: for SI CA I/XII / SI CA II/XII: selectivity index, ratio of KIs
[4] = target: T1, hCA IX; experiment: Stopped-flow CO2 hydrase assay, hCA IX; conditions: selectivity index, ratio of KIs
Method: as §3

[5] = target: hCA IV (Homo sapiens, UniProt P22748); experiment: Stopped-flow CO2 hydrase assay, hCA IV; conditions: for SI CA I/IV / SI CA II/IV: selectivity index, ratio of KIs
Method: as §3

[6] = system: rat model of arthritis induced by the intra-articular injection of complete Freund's adjuvant (CFA); experiment: Incapacitance test, CFA-induced arthritis; assay type: in vivo
Method: (§1) Articular damage was induced by injection of Complete Freund’s Adjuvant (CFA; Sigma-Aldrich, St Louis, MO, USA), containing 1 mg/mL of heat-killed and dried Mycobacterium tuberculosis in paraffin oil and mannide monooleate, into the tibiotarsal joint.[50] Briefly, the rats were lightly anesthetized with 2% isoflurane, the left leg skin was sterilized with 75% ethyl alcohol, and the lateral malleolus was located by palpation. A 28-gauge needle was then inserted vertically to penetrate the skin and turned distally for insertion into the articular cavity at the gap between the tibiofibular and tarsal bone until a distinct loss of resistance was felt. A volume of 50 μL of CFA was then injected (day 0). Control rats received 50 μL of saline solution (day 0) in the tibiotarsal joint.
(§2) The hybrid derivatives 26, 29, 30, and 31 (1, 10, and 30 mg/kg) were suspended in a 1% solution of carboxymethylcellulose (CMC) sodium salt and acutely per os administered starting from day 14 after CFA i.a. injection, when arthritis was well established. The H2S releaser 3 and CAI 15 were also administered alone or in coadministration at the equimolar dose of compound 30 30 mg/kg (13.23 and 17.71 mg/kg, respectively). The antihypersensitivity effects were evaluated over time by the Paw pressure and Incapacitance tests.
Weight-bearing changes were measured using an incapacitance apparatus (Linton Instrumentation, Norfolk, U.K.) to detect changes in postural equilibrium after a hind limb injury.[53],[54] Rats were trained to stand on their hind paws in a box with an inclined plane (65° from horizontal). This box was placed above the incapacitance apparatus. This allowed us to independently measure the weight that the animal applied on each hind limb. The value reported for each animal is the mean of five consecutive measurements. In the absence of hind limb injury, rats applied an equal weight on both hind limbs, indicating postural equilibrium, whereas an unequal distribution of weight on the hind limbs indicated a monolateral decreased pain threshold. Data are expressed as the difference between the weight applied to the limb contralateral to the injury and the weight applied to the ipsilateral limb (Δ weight).

[7] = target: hCA I (Homo sapiens, UniProt P00915); experiment: Stopped-flow CO2 hydrase assay, hCA I
Method: as §3

[8] = system: rat model of arthritis induced by the intra-articular injection of complete Freund's adjuvant (CFA); experiment: Paw pressure test, CFA-induced arthritis; assay type: in vivo
Method: as §1, §2
The nociceptive threshold of rats was determined with an analgesimeter (Ugo Basile, Varese, Italy), according to the method described by Leighton et al.[51] and Maresca et al.,[52] (doi: 10.1111/jphp.12828). Briefly, a constantly increasing pressure was applied to a small area of the dorsal surface of the hind paw using a blunt conical probe by a mechanical device. Mechanical pressure was increased until vocalization or a withdrawal reflex occurred while rats were lightly restrained. Vocalization or withdrawal reflex thresholds were expressed in grams. […]

[9] = system: rats; experiment: Toxicity and Irwin test; assay type: in vivo, rat; set-up: key to Irwin test: Spontaneous activity / Irwin test: Straightening reflex / Irwin test: Hypo-hyperthermia / Irwin test: Cleaning / Irwin test: Curiosity / Irwin test: Reactivity / Irwin test: Convulsions: observer's semiquantitative score (0 to +4, −4 to 0, or −4 to +4); conditions: 30 mg/kg
Method: Toxicity was evaluated after a single acute administration of 26, 29, 30, and 31 at 30 mg/kg. […] For the Irwin test, each rat was individually placed in a transparent cage (26 × 41 cm), and 26 neurobehavioral or physiological parameters were systematically assessed according to Irwin (1968)[55] and already reported by Berrino and colleagues in similar studies.[30] Behavioral, autonomic, and neurological manifestations produced by compound administration in rats were evaluated: motor displacement, motor reflexes, stereotypies, grooming, reaction to painful or environmental stimuli (analgesia and irritability), startle response, secretions, excretions, respiratory movements, skin color and temperature, piloerection, exophthalmos, eyelid and corneal reflexes, muscle tone, ataxia, tremors, head twitches, jumps, convulsions, Straub tail, and other signs or symptoms. For postural reflexes (righting reflex) and other signs such as piloerection, exophthalmia (exaggerated protrusion of the eyeball), ataxia, tremors, and Straub tail, only presence or absence was recorded. Skin color was evaluated qualitatively (pale, red, or purple); other signs were evaluated semiquantitatively, according to the observer’s personal scale (0 to +4, −4 to 0, or −4 to +4). The terms sedation and excitation express the final interpretation of a group of signs: reduced motor activity, reduced startle response, eyelid ptosis, and reduced response to manual manipulation, for the former; and increased motor activity, increased startle response, increased response to manual manipulation, and exophthalmia, for the latter. Hyperactivity includes running, jumping, and attempting to escape from the container. Trained observers were not informed about the specific treatment of each animal group carried out in this test.

[10] = per os, 3 13.23 mg/kg, 15 17.71 mg/kg
[11] = S.N.C. excitement, limits 0 - 4

Sequence of hCA XII (O43570 25-354): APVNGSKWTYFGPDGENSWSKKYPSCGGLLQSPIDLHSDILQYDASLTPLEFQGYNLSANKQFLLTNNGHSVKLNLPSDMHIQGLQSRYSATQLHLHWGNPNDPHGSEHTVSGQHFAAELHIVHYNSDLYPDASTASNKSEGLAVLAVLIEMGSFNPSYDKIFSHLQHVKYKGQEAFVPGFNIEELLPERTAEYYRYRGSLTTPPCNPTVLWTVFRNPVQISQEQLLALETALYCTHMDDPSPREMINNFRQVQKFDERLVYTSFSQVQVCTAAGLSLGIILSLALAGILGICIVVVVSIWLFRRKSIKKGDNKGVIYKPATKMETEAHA
Sequence of hCA IV (P22748 19-312): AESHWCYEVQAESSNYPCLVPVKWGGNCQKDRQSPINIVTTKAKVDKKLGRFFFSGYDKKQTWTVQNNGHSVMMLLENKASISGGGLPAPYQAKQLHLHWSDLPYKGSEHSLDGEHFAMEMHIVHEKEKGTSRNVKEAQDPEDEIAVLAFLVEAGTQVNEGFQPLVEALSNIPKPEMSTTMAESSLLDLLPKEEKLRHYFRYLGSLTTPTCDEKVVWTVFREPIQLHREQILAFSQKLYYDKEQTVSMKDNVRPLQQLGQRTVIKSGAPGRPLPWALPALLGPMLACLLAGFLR
Sequence of hCA I (P00915 whole entry): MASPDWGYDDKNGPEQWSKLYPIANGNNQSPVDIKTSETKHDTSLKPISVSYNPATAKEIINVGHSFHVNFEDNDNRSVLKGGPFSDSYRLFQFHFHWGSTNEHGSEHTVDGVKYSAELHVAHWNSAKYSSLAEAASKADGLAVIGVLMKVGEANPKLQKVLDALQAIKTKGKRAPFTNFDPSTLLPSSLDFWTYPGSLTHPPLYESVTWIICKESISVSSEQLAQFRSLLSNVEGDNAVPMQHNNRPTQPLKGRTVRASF

SMILES: NS(=O)(=O)c1ccc(CCNCc2ccccc2)cc1 [Compound 4, 4-(2-(Benzylamino)ethyl)benzenesulfonamide]
Ki [1]: 78.1 nM

SMILES: NS(=O)(=O)c1ccc(CCNCc2ccc(F)cc2)cc1 [Compound 5, 4-(2-((4-Fluorobenzyl)amino)ethyl)benzenesulfonamide]
SI CA I/II [2]: 1.4
SI CA I/XII [3]: 1.9
SI CA II/XII [3]: 1.3
SI CA I/IX [4]: 2.0
SI CA II/IX [4]: 1.4
Ki [1]: 56.5 nM
SI CA I/IV [5]: 0.09
SI CA II/IV [5]: 0.06

SMILES: NS(=O)(=O)c1ccc(CCNCc2ccc([N+](=O)[O-])cc2)cc1 [Compound 10, 4-(2-((4-Nitrobenzyl)amino)ethyl)benzenesulfonamide]
SI CA I/II [2]: 1.9
SI CA I/XII [3]: 2.9
SI CA II/XII [3]: 1.6
SI CA I/IX [4]: 2.5
SI CA II/IX [4]: 1.4
Ki [1]: 89.2 nM
SI CA I/IV [5]: 0.1
SI CA II/IV [5]: 0.07

SMILES: NS(=O)(=O)c1ccc(CCN(Cc2csc3ccccc23)C(=O)c2ccc(-c3cssc3=S)cc2)cc1 [Compound 31, N-(Benzo[b]thiophen-3-ylmethyl)-N-(4-sulfamoylphenethyl)-4-(3-thioxo-3H-1,2-dithiol-4-yl)benzamide]
reduction of spontaneous pain, Incapacitance test ([6]; single per os, 1 to 30 mg/kg, day 14 after CFA): reduced spontaneous pain in a dose-dependent manner
SI CA I/XII [3]: >1204
SI CA II/XII [3]: 299
SI CA I/IX [4]: >4167
antihyperalgesic effect, Paw pressure test, 1 mg/kg ([8]; 1 mg/kg per os): ineffective
weight tolerated on the ipsilateral paw, Paw pressure test, 10 and 30 mg/kg ([8]; 10 and 30 mg/kg per os, from 15 min up to 45 min after treatment, vs CFA-treated animals): significantly increased the weight tolerated
SI CA I/IV [5]: >208
SI CA II/IV [5]: 52 and 51.7
Irwin test: Cyanosis ([9]; Autonomic signes, limits 0 - 4): 0
Irwin test: Exolphthalmos ([9]; Autonomic signes, limits 0 - 4): 0
Irwin test: Flush ([9]; Autonomic signes, limits 0 - 4): 0
Irwin test: Lacrimation ([9]; Autonomic signes, limits 0 - 4): 0
Irwin test: Pallor ([9]; Autonomic signes, limits 0 - 4): 0
Irwin test: Piloerection ([9]; Autonomic signes, limits 0 - 4): 0
Irwin test: Salivation ([9]; Autonomic signes, limits 0 - 4): 0
Irwin test: Writhing ([9]; Autonomic signes, limits 0 - 4): 0
Irwin test: Palpebral opening ([9]; Autonomic signes, limits 4 - 0): 4
Irwin test: Hypo-hyperthermia ([9]; Autonomic signes, limits -4/+4): 0
Irwin test: Passivity ([9]; Behaviour, limits 0 - 4): 0
Irwin test: Vocalization ([9]; Behaviour, limits 0 - 4): 0
Irwin test: Cleaning ([9]; Behaviour, limits 4 - 0): 0
Irwin test: Curiosity ([9]; Behaviour, limits 4 - 0): 4
Irwin test: Reactivity ([9]; Behaviour, limits 4 - 0): 4
Irwin test: Spontaneous activity ([9]; Behaviour, limits 4 - 0): 4
Irwin test: Ataxia ([9]; Movement, limits 0 - 4): 0
Irwin test: Stereotipies ([9]; Movement, limits 0 - 4): 0
Irwin test: Straightening reflex ([9]; Movement, limits 4 - 0): 4
Irwin test: Physical strenght ([9]; Muscolar tone, limits 4 – 0): 4
Irwin test: Palpebral reflex ([9]; Reflexes, limits 4 - 0): 4
Irwin test: Straub tail [9, 11]: 0
Irwin test: Tremors [9, 11]: 0
Irwin test: Convulsions ([9]; S.N.C. excitement, limits 4 - 0): 0
Irwin test: Delayed death (48 h) ([9]; Toxicity, limits 0 - 4): 0
Irwin test: Immediate death ([9]; Toxicity, limits 0 - 4): 0

Second part, led by results:

Ki [2]: 178 nM
SI CA I/II [2]: 1.5
Ki [3]: 54.7 nM
SI CA I/XII [3]: 4.8
SI CA II/XII [3]: 3.2
SI CA I/IX [4]: 5.8
SI CA II/IX [4]: 4.0
Ki [7]: 261 nM
Ki [5]: 3010 nM
SI CA II/IV [5]: 0.06
SMILES: NS(=O)(=O)c1ccc(CCNCc2cccc3ccccc23)cc1 [Compound 15, 4-(2-((Naphthalen-1-ylmethyl)amino)ethyl)benzenesulfonamide]
antihyperalgesic effect, Incapacitance test, dose equimolar to 30 30 mg/kg [6, 10]: absence of effects detected in vivo
antihyperalgesic effect, Paw pressure test, dose equimolar to 30 30 mg/kg [8, 10]: very weak antihyperalgesic action

SI CA I/II [2]: 3.1
SI CA I/XII [3]: 2.6
SI CA II/XII [3]: 0.9
SI CA I/IX [4]: 2.7
SI CA II/IV [5]: 0.02
SMILES: NS(=O)(=O)c1ccc(CCNCCc2ccccc2)cc1 [Compound 17, 4-(2-(Phenethylamino)ethyl)benzenesulfonamide]
Ki [1]: 102 nM
